{"source": "paper PMC6400998", "about": "“Soy Isoflavone Extract Does Not Increase the Intoxicating Effects of Acute Alcohol Ingestion in Human Volunteers” (Frontiers in Pharmacology, 2019)", "key": {"healthy male volunteers [1]": {"tested_on": "healthy male volunteers", "experiment": "Addiction Research Center Inventory (ARCI) 49-item short form questionnaire", "format": "in vivo, human", "settings": "n = 10"}, "healthy male volunteers [2]": {"tested_on": "healthy male volunteers", "experiment": "Subjective and adverse effects by visual analog scales (VAS, 100 mm)", "experimental": "(§1) The study was a randomized, single-blinded (the participants were informed that they could receive different doses of alcohol in the two sessions), and crossover clinical trial. Subjects participated in two different experimental sessions separated by at least 3 days. In one session they received a glass of water (240 mL) and 2 h later a single oral dose of alcohol was administered (0.5 g/kg, Vodka Absolut® 40°, Sweden); in the other, they were given four capsules containing a soy extract product with a glass of water (240 mL) and 2 h later the same dose of alcohol.\nSubjective effects were evaluated using a set of visual analog scales (VAS) at baseline (0 h), 2, 2.25, 2.5, 2.75, 3, 3.5, 4, 5, 6, 8, and 10 h after first administration. VAS (100 mm) were labeled with different adjectives marked at opposite ends from “not at all” to “extremely” ([Peiró et al., 2013]; [Farré et al., 2015]; [Papaseit et al., 2016]). Subjects were asked to rate effects of drunkenness, content, nausea, vertigo, dizziness, feeling of face flushing, headache, and breathing difficulty.\n(§2) Differences with respect to baseline were calculated for vital signs (SBP, DBP, HR, and OT-FT) and subjective effects (VAS, ARCI). Maximum/peak effects (Emax) and the time to reach maximum effects (tmax) were also determined for the previously mentioned variables. The area under the curve of the concentrations from 0 to 10 h (AUC0-10 h) using the trapezoidal rule was calculated for vital signs and subjective effects.\n(§3) For the statistical comparison of AUC and Emax a Student’s t-test for paired samples was employed. For tmax a non-parametric Wilcoxon test was used. A repeated measure ANOVA with two factors (treatment and time) was used to compare the time course of effects. When treatment or the treatment × time interaction was statistically significant, multiple Tukey post hoc comparisons were performed at each time point."}, "healthy male volunteers [3]": {"tested_on": "healthy male volunteers", "experiment": "Physiological effects (vital signs: SBP, DBP, HR, oral and cutaneous facial temperature) after alcohol with or without soy extract", "settings": "difference with respect to baseline; for FT Emax: cutaneous facial temperature", "experimental": "as §1\nNon-invasive systolic blood pressure (SBP), diastolic blood pressure (DBP), heart rate (HR), oral and cutaneous facial temperature (OT, FT) were repeatedly recorded at baseline, immediately before capsule administration, and at 2 (immediately before beverage administration), 2.5, 3, 4, 5, 6, 8, and 10 h after first administration. All assessments were carried out with a DinamapTM 8100-T vital signs monitor (Critikon, Tampa, FL, United States). Cutaneous facial temperature was measured at the same time with an additional monitor (Critikon, Tampa, FL, United States).\nas §2, §3"}, "[4]": {"experiment": "Pharmacokinetics of alcohol (ethanol) in plasma", "experimental": "as §1\nBlood samples and ethanol breath concentrations were collected at baseline (before soy extract administration), and at 2 (before ethanol administration), 2.25, 2.5, 2.75, 3, 4, 5, 6, 7, 8, 10, and 24 h after soy extract administration. Ethanol was determined in blood (DRI® Ethyl Alcohol Assay, Thermo Fisher, Fremont, CA, United States) and breath (Alcotest, Dräger, Germany). Daidzein, genistein, and the endogenous metabolite equol were determined by liquid chromatography coupled to tandem mass spectrometry (LC/MS/MS) using a validated method ([Rodríguez-Morató et al., 2015]).\nPeak concentration (Cmax), time to reach peak concentrations (Tmax), and area under the concentration-time curve from 0 to 10 h (AUC0-10) from ethanol plasma concentrations over time were determined using Pharmacokinetic Functions for Microsoft Excel (Joel Usansky, Atul Desai, and Diane Tang-Liu, Department of Pharmacokinetics and Drug Metabolism, Allergan, Irvine, CA, United States)."}, "male mice": {"tested_on": "male mice", "set-up": "method as in Martin et al., 2013", "settings": "ref Martin et al., 2013; cited from earlier work"}, "[5]": {"experiment": "Plasma concentrations of daidzein, genistein and equol after soy extract (LC/MS/MS)", "settings": "for Tmax / Cmax: human", "experimental": "as §1\nA commercial soy extract product (Super-Absorbable Soy Isoflavones®, hard gelatin capsules, Life-Extension, United States) was employed. According to the manufacturer each capsule contained 54 mg of total isoflavones (22 mg daidzin-daidzein, 28 mg genistin-genistein, and 4 mg glycitin-glycitein).\nEthanol was determined in blood (DRI® Ethyl Alcohol Assay, Thermo Fisher, Fremont, CA, United States) and breath (Alcotest, Dräger, Germany)."}, "[6]": {"settings": "difference with respect to baseline, AUC 0-10 h, n = 10"}, "[7]": {"settings": "difference with respect to baseline, peak effect, n = 10"}, "[8]": {"settings": "alcohol 0.5 g/kg oral, 2 h after soy extract (four capsules) or water, Mean ± SD, n = 10"}}, "data": [{"smiles": "CCO", "note": "[Alcohol, ethanol]", "values": [{"measurement": "ARCI-MBG AUC0-10", "setting": "healthy male volunteers [1]; euphoria subscale, AUC 0-10 h", "value": "3.4 ± 3.2"}, {"measurement": "ARCI-MBG Emax", "setting": "healthy male volunteers [1]; euphoria subscale, difference with respect to baseline, peak effect", "value": "2.7 ± 3.3"}, {"measurement": "ARCI-LSD Emax", "setting": "healthy male volunteers [1]; first ARCI-LSD line of Table 1 (r36), dysphoria and somatic symptoms subscale, peak effect", "value": "5.2 ± 1.7"}, {"measurement": "ARCI-LSD AUC0-10", "setting": "healthy male volunteers [1]; first ARCI-LSD line of Table 1 (r37), AUC 0-10 h", "value": "43.2 ± 8.27"}, {"measurement": "ARCI-BG ARCI-A Emax", "setting": "healthy male volunteers [1]; line printed ARCI-BG ARCI-A (r40), peak effect", "value": "1.8 ± 1.686"}, {"measurement": "ARCI-BG ARCI-A AUC0-10", "setting": "healthy male volunteers [1]; line printed ARCI-BG ARCI-A (r41), AUC 0-10 h", "value": "4.5 ± 4.47"}, {"measurement": "ARCI-LSD Emax", "setting": "healthy male volunteers [1]; second line printed ARCI-LSD in Table 1 (r38), peak effect", "value": "4.6 ± 1.07"}, {"measurement": "ARCI-LSD AUC0-10", "setting": "healthy male volunteers [1]; second line printed ARCI-LSD in Table 1 (r39), AUC 0-10 h", "value": "36.7 ± 5.5"}, {"measurement": "ARCI-PCAG AUC0-10", "setting": "healthy male volunteers [1]; sedation subscale, AUC 0-10 h", "value": "14.05 ± 14.2"}, {"measurement": "ARCI-PCAG Emax", "setting": "healthy male volunteers [1]; sedation subscale, difference with respect to baseline, peak effect", "value": "3.4 ± 3.59"}, {"measurement": "VAS score for headache at 8 h", "setting": "healthy male volunteers [2]; 8 h after first administration, p < 0.01", "value": 16, "unit": "mm"}, {"measurement": "VAS Content AUC0-10", "setting": "healthy male volunteers [2]; [6]", "value": "29.91 ± 47.07"}, {"measurement": "VAS Drunkenness AUC0-10", "setting": "healthy male volunteers [2]; [6]", "value": "25.387 ± 35.1"}, {"measurement": "VAS Breathing difficulty Emax", "setting": "healthy male volunteers [2]; [7]", "value": 0, "unit": "mm"}, {"measurement": "VAS Content Emax", "setting": "healthy male volunteers [2]; [7]", "value": "23.9 ± 26.2", "unit": "mm"}, {"measurement": "VAS Dizziness Emax", "setting": "healthy male volunteers [2]; [7]", "value": "10.9 ± 18.3", "unit": "mm"}, {"measurement": "VAS Drunkenness Emax", "setting": "healthy male volunteers [2]; [7]", "value": "20.8 ± 19.1", "unit": "mm"}, {"measurement": "VAS Face flushing Emax", "setting": "healthy male volunteers [2]; [7]", "value": "9.6 ± 14.9", "unit": "mm"}, {"measurement": "VAS Headache Emax", "setting": "healthy male volunteers [2]; [7]", "value": "16.2 ± 27.9", "unit": "mm"}, {"measurement": "VAS Nausea Emax", "setting": "healthy male volunteers [2]; [7]", "value": "0.8 ± 1.75", "unit": "mm"}, {"measurement": "VAS Vertigo Emax", "setting": "healthy male volunteers [2]; [7]", "value": "2.2 ± 6.9", "unit": "mm"}, {"measurement": "FT Emax", "setting": "healthy male volunteers [3]; peak effect, n = 10", "value": "1.59 ± 0.67", "unit": "°C"}, {"measurement": "FT Emax", "setting": "healthy male volunteers [3]; peak effect, n = 10, listed as alcohol", "value": 1.59, "unit": "°C"}, {"measurement": "DBP Emax", "setting": "healthy male volunteers [3]; diastolic blood pressure, peak effect, n = 10", "value": "–10.5 ± 8.72 mmHg"}, {"measurement": "HR Emax", "setting": "healthy male volunteers [3]; heart rate, peak effect, n = 10", "value": "–1.2 ± 15.26 beats/min"}, {"measurement": "OT Emax", "setting": "healthy male volunteers [3]; oral temperature, peak effect, n = 10", "value": "–0.23 ± 0.47"}, {"measurement": "SBP Emax", "setting": "healthy male volunteers [3]; systolic blood pressure, peak effect, n = 10", "value": "–9.2 ± 11.05 mmHg"}, {"measurement": "reduction of DBP at 2 h", "setting": "healthy male volunteers [3]; time course, 2 h after first administration, p < 0.05", "value": -2.89}, {"measurement": "reduction of DBP at 3 h", "setting": "healthy male volunteers [3]; time course, 3 h after first administration, p < 0.05", "value": -4.5}, {"measurement": "reduction of DBP at 4 h", "setting": "healthy male volunteers [3]; time course, 4 h after first administration, p < 0.01", "value": -9.67}, {"measurement": "reduction of DBP at 8 h", "setting": "healthy male volunteers [3]; time course, 8 h after first administration, p < 0.05", "value": -4.78}, {"measurement": "alcohol concentrations in plasma 10 h after drug administration", "setting": "[4]; 10 h after drug administration", "value": "undetectable"}, {"measurement": "AUC0-10 of alcohol in plasma", "setting": "[4]; [8]", "value": "219.67 ± 27.2", "unit": "ng/mL/h"}, {"measurement": "Cmax of alcohol in plasma", "setting": "[4]; [8]", "value": "77 ± 22.25", "unit": "ng/mL"}]}, {"smiles": "O=c1c(-c2ccc(O)cc2)coc2cc(O)ccc12", "note": "[daidzein]", "values": [{"measurement": "cocaine-reinforcing effects", "setting": "male mice", "value": "decreased"}, {"measurement": "cue-induced cocaine relapse", "setting": "male mice", "value": "reduced"}, {"measurement": "time of peak plasma concentration", "setting": "[5]; after four capsules of soy extract, oral, n = 10", "value": "around 6 h"}, {"measurement": "Tmax", "setting": "[5]; plasma, oral, 4 capsules, Tmax for the first peak, first of double peaks in plasma after soy extract", "value": "2 to 4", "unit": "h"}, {"measurement": "Cmax", "setting": "[5]; plasma, po, 4 capsules", "value": 1020, "unit": "ng/mL"}, {"measurement": "Tmax", "setting": "[5]; plasma, po, 4 capsules, time of peak plasma concentration, after four capsules of soy extract, oral, n = 10", "value": 6.1, "unit": "h"}]}, {"smiles": "Oc1ccc([C@H]2COc3cc(O)ccc3C2)cc1", "note": "[equol]", "values": [{"measurement": "Tmax", "setting": "[5]; in vivo, po, time of peak plasma concentration", "value": 24, "unit": "h"}]}, {"smiles": "O=c1c(-c2ccc(O)cc2)coc2cc(O)cc(O)c12", "note": "[genistein]", "values": [{"measurement": "cocaine-reinforcing effects", "setting": "male mice", "value": "decreased"}, {"measurement": "cue-induced cocaine relapse", "setting": "male mice", "value": "not"}, {"measurement": "Tmax", "setting": "[5]; in vivo, 4 capsules, Tmax for the first peak, first of double peaks in plasma after soy extract", "value": "2 to 4", "unit": "h"}, {"measurement": "Cmax", "setting": "[5]; in vivo, po, 4 capsules", "value": 1040, "unit": "ng/mL"}, {"measurement": "Tmax", "setting": "[5]; in vivo, po, 4 capsules, time of peak plasma concentration, after four capsules of soy extract, oral, n = 10", "value": 7.3, "unit": "h"}]}]}
